Data published in PMC5963591, “Bitopic Binding Mode of an M1 Muscarinic Acetylcholine Receptor Agonist Associated with Adverse Clinical Trial Outcomes” (Molecular Pharmacology, 2018).

What was measured:
M4 mAChR = molecular target: T1, M4 mAChR (Homo sapiens, UniProt P08173); assay: ERK1/2 phosphorylation, CHO cells, M4; assay type: cell-based
T1 construct: expressed in transfected cells; host or cells: CHO

human mAChR M4 = molecular target: T2, human mAChR M4 (Homo sapiens, UniProt P08173); assay: [3H]-NMS competition binding, CHO membranes, M4
T2 construct: purchased PerkinElmer; host or cells: CHO
T2 sequence (P08173 whole entry): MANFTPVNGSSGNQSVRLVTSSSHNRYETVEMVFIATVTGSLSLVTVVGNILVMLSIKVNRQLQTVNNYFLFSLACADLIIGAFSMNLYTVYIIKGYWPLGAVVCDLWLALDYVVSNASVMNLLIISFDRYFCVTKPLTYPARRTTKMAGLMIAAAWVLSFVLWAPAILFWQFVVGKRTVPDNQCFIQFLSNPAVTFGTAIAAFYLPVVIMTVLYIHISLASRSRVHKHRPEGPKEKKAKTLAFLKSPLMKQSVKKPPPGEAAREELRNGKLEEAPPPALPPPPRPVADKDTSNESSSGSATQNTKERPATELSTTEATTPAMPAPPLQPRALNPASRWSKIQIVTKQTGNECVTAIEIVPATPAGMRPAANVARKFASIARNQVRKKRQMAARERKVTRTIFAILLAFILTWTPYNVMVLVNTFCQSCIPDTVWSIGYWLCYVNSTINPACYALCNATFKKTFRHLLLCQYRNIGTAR
Description: (§1) For competition binding experiments at M1, M2, M3, M4, and M5 mAChRs, CHO membranes were purchased from PerkinElmer. All experiments were performed in assay buffer of the following composition: 20 mM HEPES, 100 mM NaCl, and 10 mM MgCl2, pH 7.5, and used 10 µg protein/well in a total assay volume of 1 ml using deep well blocks. […] All assay incubations were initiated by the addition of membrane suspensions and deep well blocks were shaken for 5 minutes to ensure complete mixing. Incubation was then carried out for 2 hours at 21°C. Binding reactions were terminated by rapid filtration through GF/A filters (PerkinElmer) presoaked with 0.5% (w/v) polyethylenimine for 1 hour. Filters were then washed three times with 1 ml ice-cold assay buffer.
(§2) Inhibition binding data were curve-fit using GraphPad Prism 6 to derive the potency (IC50) of the test compound. The equilibrium dissociation constant (KI) of the test compound was then calculated with the Cheng–Prusoff equation: KI = IC50/[1 + ([L]/KD)] using the KD value derived separately from saturation binding studies.

human M1 mAChR [1] = molecular target: T3, human M1 mAChR (Homo sapiens, UniProt P11229); conditions: 20 nM [^3H]-GSK1034702
T3 sequence (P11229 1-460): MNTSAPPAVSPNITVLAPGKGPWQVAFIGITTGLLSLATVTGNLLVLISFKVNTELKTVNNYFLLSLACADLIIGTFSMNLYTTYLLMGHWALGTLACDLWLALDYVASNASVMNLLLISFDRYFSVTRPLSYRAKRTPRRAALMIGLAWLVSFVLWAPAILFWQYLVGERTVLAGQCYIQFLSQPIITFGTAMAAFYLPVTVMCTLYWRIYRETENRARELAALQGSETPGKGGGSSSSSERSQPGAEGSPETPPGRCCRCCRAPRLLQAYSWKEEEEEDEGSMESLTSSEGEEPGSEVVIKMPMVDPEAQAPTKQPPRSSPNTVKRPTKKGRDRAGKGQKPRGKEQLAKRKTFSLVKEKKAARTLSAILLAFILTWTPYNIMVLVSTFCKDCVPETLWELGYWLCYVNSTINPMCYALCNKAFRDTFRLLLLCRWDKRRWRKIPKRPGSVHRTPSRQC

M1 DREADD = molecular target: T4, M1 DREADD (Homo sapiens, UniProt P11229, A196G/Y106C); assay: Receptor phosphorylation at serine 228, M1 DREADD, CHO Flp-In cells; assay type: cell-based; conditions: compared with wild type
T4 construct: HA; expressed in transfected cells; host or cells: CHO Flp-In
T4 sequence (P11229 whole entry Y106C/A196G): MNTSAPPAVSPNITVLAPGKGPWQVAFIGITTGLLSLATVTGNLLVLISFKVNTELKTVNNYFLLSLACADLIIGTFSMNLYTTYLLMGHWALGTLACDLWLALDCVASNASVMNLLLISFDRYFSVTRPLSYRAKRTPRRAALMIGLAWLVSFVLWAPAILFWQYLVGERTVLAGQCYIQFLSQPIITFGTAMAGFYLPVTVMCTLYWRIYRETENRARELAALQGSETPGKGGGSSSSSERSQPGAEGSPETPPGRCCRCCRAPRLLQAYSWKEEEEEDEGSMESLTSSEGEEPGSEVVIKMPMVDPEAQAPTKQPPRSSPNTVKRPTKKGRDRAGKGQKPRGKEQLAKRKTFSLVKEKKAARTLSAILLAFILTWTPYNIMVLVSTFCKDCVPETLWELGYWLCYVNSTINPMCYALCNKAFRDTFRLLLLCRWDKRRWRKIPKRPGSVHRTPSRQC

[2] = molecular target: [35S]-GTPγS Gαq binding in rat cortex membranes; assay: Native tissue GTPγ[35S] binding assay (Gαq antibody capture); assay type: biochemical
Description: GTPɣ-[^35S] ([^35S]ɣ[guanosine-5′-O-(3-[^35S]thio)triphosphate] binding in rat membranes was determined in triplicate using an antibody capture technique in 96-well plate format (DeLapp et al., 1999). Native rat membranes were prepared as follows. All procedures were performed at 4°C. Ten to fifteen milliliters of sucrose buffer (10 mM HEPES, 1 mM EGTA, 1 mM dithiothreitol, 10% sucrose, and one tablet/50 ml Complete Protease Inhibitor Cocktail, pH 7.4) was added to each tissue sample and homogenized for 10 strokes using an electric IKA RW20 homogenizer (800 rpm) (IKA, Staufen, Germany) with glass homogenizer. The homogenate was centrifuged at 1000g for 10 minutes at 4°C and the supernatant collected. The pellet was rehomogenized and centrifuged again as above and the supernatant pooled and centrifuged at 11,000g for 20 minutes at 4°C. The resulting pellet was suspended in 40 ml final storage buffer (10 mM HEPES, 1 mM EGTA, 1 mM MgCl2, and 1 mM dithiothreitol, pH 7.4) and centrifuged at 27,000g for 20 minutes at 4°C. The supernatant was removed and the final pellet was suspended in 2 ml final storage buffer. The protein concentration was measured using the Bradford method (Coomassie Plus, Bio-Rad protein assay kit; Bio-Rad, Hercules, CA) with bovine gamma globulin standards. […] Plates were counted for 1 minute/well using a Wallac MicroBeta Trilux scintillation counter (PerkinElmer). […]

human M1 mAChR [3] = molecular target: T3, human M1 mAChR; assay: IP-One (IP1) accumulation assay, CHO Flp-In human M1 cells; assay type: cell-based; design: expressed in transfected cells; host or cells: CHO Flp-In
Description: Stimulation of IP accumulation was determined using the Cisbio IP-One Gq assay kit per the manufacturer’s instructions. […] CHO Flp-In cells stably expressing the human M1 mAChR were grown to confluence in T75 cell culture flasks at 37°C. Cells were washed with warm phosphate-buffered saline and detached using phosphate-buffered saline with 0.1 M EDTA. Detached cells were centrifuged at 1000g and the cells were resuspended in stimulation buffer.
All IP-One stimulations were terminated by the addition of 3 μl/well IP1-d2 solution, followed by 3 μl/well anti–IP1-cryptate solution and incubation for 1 hour at room temperature with shaking.
Functional concentration-response curves were fitted according to a four-parameter logistic equation (to determine minimum and maximum asymptotes, LogEC50, and slope; GraphPad Prism 6). […] In the absence of antagonist ([B] = 0), this equation becomes the standard four-parameter logistic equation for fitting agonist concentration-response data.

M5 mAChR = molecular target: T5, M5 mAChR (Homo sapiens, UniProt P08912); assay: ERK1/2 phosphorylation, CHO cells, M5; assay type: cell-based
T5 construct: expressed in transfected cells; host or cells: CHO
T5 sequence (P08912 whole entry): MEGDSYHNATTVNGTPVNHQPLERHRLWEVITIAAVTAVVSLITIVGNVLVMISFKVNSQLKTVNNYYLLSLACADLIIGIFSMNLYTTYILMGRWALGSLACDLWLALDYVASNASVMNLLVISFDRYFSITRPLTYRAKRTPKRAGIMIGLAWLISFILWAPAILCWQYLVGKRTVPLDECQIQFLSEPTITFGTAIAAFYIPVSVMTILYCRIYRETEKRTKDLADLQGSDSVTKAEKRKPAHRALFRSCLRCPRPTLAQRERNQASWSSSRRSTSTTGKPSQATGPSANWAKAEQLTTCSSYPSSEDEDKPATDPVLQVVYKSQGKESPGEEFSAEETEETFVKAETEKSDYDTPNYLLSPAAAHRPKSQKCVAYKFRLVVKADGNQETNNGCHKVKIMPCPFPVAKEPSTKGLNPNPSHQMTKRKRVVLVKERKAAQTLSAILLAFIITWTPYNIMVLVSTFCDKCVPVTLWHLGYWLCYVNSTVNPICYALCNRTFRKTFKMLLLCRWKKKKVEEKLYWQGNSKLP

human mAChR M5 = molecular target: T6, human mAChR M5 (Homo sapiens, UniProt P08912); assay: [3H]-NMS competition binding, CHO membranes, M5
T6 construct: purchased PerkinElmer; host or cells: CHO
T6 sequence (P08912 whole entry): as above
Description: as §1, §2

T1 sequence (P08173 whole entry): as the sequence (P08173 whole entry) above

In the case of `Cc1cc(F)c2[nH]c(=O)n(C3CCN(C4CCOCC4)CC3)c2c1` [GSK1034702, 7-fluoro-5-methyl-3-[1-(oxan-4-yl)piperidin-4-yl]-1H-benzimidazol-2-one], the “functional activity in ERK1/2 phosphorylation” value (M4 mAChR) is reported as “partial agonist activity”, the Ki (human mAChR M4) is reported as 2000 nM and the “displacement of specific [^3H]-GSK1034702 binding” value (human M1 mAChR [1]) is reported as “fully displaced”. For the same compound, the “phosphorylation at serine 228” value (M1 DREADD) was “unchanged”, the “pEC50, [^35S]-GTPγS Gαq binding” value [2] was 6.7 ± 0.1 and the “[^35S]-GTPγS Gαq binding, maximum relative to oxotremorine-M” value ([2]; % of maximum elicited by oxotremorine-M) was “approximately 37%”. For the same compound, the Emax (human M1 mAChR [3]; % of the maximal response elicited by ACh, read-out: IP1 accumulation, maximal response relative to ACh) was roughly 90%, the “IP1 Emax” value (human M1 mAChR [3]; CHO Flp-In human M1 cells) was 90.1 ± 2.9 and the EC50 (human M1 mAChR [3]; CHO Flp-In human M1 cells, read-out: IP1 pEC50 (converted)) was 79.4 nM. For the same compound, the “IP1 Accumulation ΔLog10(τ/KA)” value (human M1 mAChR [3]; normalized to reference ligand ACh) was 0.3 ± 0.2, the “IP1 Accumulation Log10(τ/KA)” value (human M1 mAChR [3]; transduction coefficient, wild-type M1 mAChR) was 7.4 ± 0.2 and the “functional activity in ERK1/2 phosphorylation” value (M5 mAChR) was “partial agonist activity”. For the same compound, the Ki (human mAChR M5) was 6310 nM.
